Results published in US20220227765A1, “PYRIDO-INDOLE ANALOGUES AS GPX4 INHIBITORS” (Ferro Therapeutics, Inc., priority 2019, published 2022).
In brackets after ≈: the same amount, converted by molar mass. Where two headings read alike, the source gives them in different places.

Key:
786-O = assay: Cell proliferation (Alamar Blue) assay, 786-O; type: cell-based, human; details: Homo sapiens, 786-0, 24 h, Table B-3, 786-O cells
Method: (§1) Cell viability assay was performed to assess the potency of the compounds in human cancer cell lines 786-0 (renal cell carcinoma) and SJSA-1 (osteosarcoma). Additional cell lines, such as pancreatic cancer cell lines (Panc 02.13, BxPC-3, Panc 12, Panc 02.03, Panc 6.03, PSN-1, HPAC, and Capan-1), prostate cancer cell lines (PC-3, DU145, 22Rv1, NCI-H660, BPH1, LNCaP, BM-1604, and MDA PCa 2b), etc., can be tested in a similar method.
(§2) Cells (SJSA-1, 786-0 and A431) were seeded (5000 cells/100 μL/well) in 96-well tissue culture plate and incubated at 37° C./5% CO2 for 16-24 hours. The cells were then treated with compounds (25 μL of 5×). The compound concentrations were 10-0.0005 μM prepared in 3-fold serial dilutions with final DMSO concentration of 1%. The plates were then incubated for 24 h at 37° C./5% CO2 in a moist environment. Then Alamar Blue™ reagent (final concentration 1×-12.5 μL) was added to each well and incubated for 1.5 hours at 37° C./5% CO2. The plates were read on fluorescence reader at 540 nm excitation and 590 nm emission wavelengths. The IC50 values were subsequently determined using a sigmoidal dose-response curve (variable slope) in GraphPad Prism® 5 software. Table A-3, Table B-3 and Table C-3 show cell proliferation data for certain compounds as described herein.

SJSA-1 = assay: Cell proliferation (Alamar Blue) assay, SJSA-1; type: cell-based, human; details: Homo sapiens, SJSA-1, 24 h, Table B-3, head prints SJSB-1, 24 h, read-out: IC50 (μM) SJSB-1
Method: as §1, §2

A431 = assay: Cell proliferation (Alamar Blue) assay, A431; type: cell-based, human; details: Homo sapiens, A-431, 24 h, Table B-3, A431 cells
Method: as §1, §2

[1] = Kinetic solubility (PBS, pH 7.4); type: physicochemical; details: for solubility kinetic: aqueous buffer, kinetic from dmso stock
Human blood stability = type: in vitro ADME
[2] = Rat IV pharmacokinetics (2 mg/kg); type: in vivo; details: male, SD, plasma; for clearance: read-out: Rat IV-PK CL
From the text: Institutional Animal Ethical Committee (IAEC) of Jubilant Biosys (IAEC/JDC/2019/188R (for Mice) and IAEC/JDC/2019/189R (for Rat) nominated by CPCSEA (Committee for the Purpose of Control and Supervision of Experiments on Animals) approved the mice and rat pharmacokinetic experiments. Male Balb/c mice (˜6-8 weeks old with body weight range of 22-25 g) and male SD rats (6-8 weeks old with body weight range of 200-250 g) were procured from Vivo Biotech, Hyderabad, India. Animals were quarantined in Jubilant Biosys Animal House for a period of 7 days with a 12:12 h light: dark cycles, and prior to the study the animals were stratified as per body weight.
B) Procedure for rat: Intravenous and oral pharmacokinetics study was done at a dose 2 and 10 mg/kg at dose volume of 2 and 10 mL/Kg. Serial blood sampling was done and at each time point (˜200 μL) were collected from retro-orbital plexus at 0.083 (Only for IV), 0.25, 0.5, 1, 2, 4, 8, 10 (only for PO) and 24 h. Blood samples were collected in tubes containing K2.EDTA as anticoagulant and centrifuged for 5 min at 10,000 rpm in a refrigerated centrifuge (Biofuge, Heraeus, Germany) maintained at 4° C. for plasma separation.
Group I (IV) received test compound intravenously by tail vein at 2 mg/Kg in solution formulation prepared using 30% Kolliphore EL in WFI; dose volume: 2 mL/Kg; strength: 1 mg/mL.
Blood concentration-time data of test compound was analyzed by non-compartmental method using Phoenix WinNonlin Version 8.1.

[3] = Rat hepatocyte metabolic stability; type: in vitro ADME; details: for half-life / hepatocyte CLint: rat hepatocytes; for half-life: read-out: rat hepatocytes T1/2; for hepatocyte CLint: read-out: rat hepatocytes h Clintr (μL/min/10^6 cells)
[4] = Human hepatocyte metabolic stability; type: in vitro ADME; details: for half-life / hepatocyte CLint: human hepatocytes; for half-life: read-out: human hepatocytes T1/2; for hepatocyte CLint: read-out: human hepatocytes h Clintr (μL/min/10^6 cells)
[5] = CD-1 Mouse Whole Blood Stability Assay; type: in vitro ADME; details: Table B-6, incubation at 37° C.
[6] = Equilibrium solubility at different pHs and with SBECD; type: physicochemical; details: thermodynamic from solid
[7] = aqueous buffer, pH 3.0 PBS buffer, read-out: Eq. solubility pH 3.0 PBS buffer
[8] = aqueous with cosolvent or surfactant or cyclodextrin, 20% SBECD (sulfobutyl ether cyclodextrin), read-out: Eq. solubility 20% SBECD

IC50 (786-O)	IC50 (SJSA-1)	IC50 (A431)	solubility kinetic ([1]; Table B-4)	human blood stability % remaining (Human blood stability; 15 min)	human blood stability % remaining (Human blood stability; 30 min)	human blood stability % remaining (Human blood stability; 45 min)	human blood stability % remaining (Human blood stability; 60 min)	human blood stability % remaining (Human blood stability; 120 min)	rat hepatocytes extr. Ratio [3]	human hepatocytes extr. Ratio [4]	CD-1 Mouse Whole Blood Stability % Remaining ([5]; 0 min)	CD-1 Mouse Whole Blood Stability % Remaining ([5]; 30 min)	CD-1 Mouse Whole Blood Stability % Remaining ([5]; 60 min)	solubility [6, 8]	SMILES	further results
0.009 µM	0.018 µM	4.7 µM	4 µM (≈ 1.83 µg/mL)	90%_15	55%_30	36%_45	22%_60	1.5%_120							C#CC(=O)N1[C@@H](CCCC)Cc2c([nH]c3ccccc23)[C@@H]1c1ccc(C(=O)NCCOC)cc1 [Compound B-3, 4-((1S,3S)-3-butyl-2-propioloyl-2,3,4,9-tetrahydro-1H-pyrido[3,4-b]indol-1-yl)-N-(2-methoxyethyl)benzamide]	clearance [2]: 348 mL/min/kg
0.002 µM	0.002 µM		1 µM (≈ 0.455 µg/mL)	36%_15	41%_30	11%_45	9%_60	0%_120	0.9	0.82					C#CC(=O)N1[C@@H](CCCC)Cc2c([nH]c3ccccc23)[C@@H]1c1ccc(C(=O)NC2CCC2)nc1 [Compound B-5, 5-((1S,3S)-3-butyl-2-propioloyl-2,3,4,9-tetrahydro-1H-pyrido[3,4-b]indol-1-yl)-N-cyclobutylpicolinamide]	
0.032 µM	0.06 µM	8.1 µM									100.0%	9.6%	2.1%		C#CC(=O)N1[C@@H](CCCC)Cc2c([nH]c3c(F)cc(F)cc23)[C@@H]1C1CCN(C(=O)OC)CC1 [Compound B-28]	
0.018 µM	0.029 µM													9 to 18 µg/mL (≈ 16.6 to 33.1 µM)	C#CC(=O)N1[C@@H](CCCC)Cc2c([nH]c3c(F)cc(F)cc23)[C@@H]1c1ccc(N2CCN(C(C)=O)CC2)c(C#N)c1 [Compound B-32]	solubility kinetic ([1]; Table B-7): < 1 µM; solubility ([6]; aqueous buffer, pH 3.0, read-out: Eq. solubility pH 3.0): < 1 µg/mL; solubility [6, 7]: < 1 µg/mL
0.121 µM	0.257 µM	> 10 µM												> 1090 µg/mL	C#CC(=O)N1[C@@H](CCCC)Cc2c([nH]c3c(F)cc(F)cc23)[C@@H]1c1cnn(C)c1 [Compound B-33]	solubility [6, 7]: < 1 µg/mL
0.01 µM	0.019 µM	6.6 µM	< 1 µM	107%_15	31%_30	15%_45	8.4%_60	0%_120	0.78	0.8				10 µg/mL (≈ 20.9 µM)	C#CC(=O)N1[C@@H](CCCC)Cc2c([nH]c3c(F)cc(F)cc23)[C@@H]1c1ccc(NC(=O)OCC)cc1 [Compound B-35]	Kinetic solubility (PBS, pH 7.4, μM) ([1]; Table B-7): <1 μM; rat hepatocytes % met @ 180 min [3]: 94%; half-life [3]: 1.13 h; hepatocyte CLint [3]: 41 µL/min/1e6 cells; human hepatocytes % met @ 180 min [4]: 73%; half-life [4]: 1.63 h; hepatocyte CLint [4]: 28 µL/min/1e6 cells
0.001 µM	0.004 µM	4.6 µM	< 1 µM						0.64	0.58					C#CC(=O)N1[C@@H](CC2CC2)Cc2c([nH]c3ccccc23)[C@@H]1c1ccc(NC23CC4CC(CC(C4)C2)C3)cc1 [Compound B-37]	rat hepatocytes % met @ 180 min [3]: 74%; half-life [3]: 2.28 h; hepatocyte CLint [3]: 20 µL/min/1e6 cells; human hepatocytes % met @ 180 min [4]: 38%; half-life [4]: 4.5 h; hepatocyte CLint [4]: 10 µL/min/1e6 cells; AUC(0-t) ([2]; read-out: Rat IV-PK AUC (0-t)): 346 ng·h/mL; clearance [2]: 115 mL/min/kg; half-life ([2]; read-out: Rat IV-PK T1/2): 3.3 h; Vd ([2]; read-out: Rat IV-PK Vd): 32 L/kg
											100%	22.3%	10.5%		C#CC(=O)N1[C@@H](CCCC)Cc2c([nH]c3c(F)cc(F)cc23)[C@@H]1c1ccc(-c2nnn[nH]2)cc1 [Compound B-50]	
0.07 µM	0.01 µM	1.1 µM									100%	0%	0%		C#CC(=O)N1[C@@H](CCCC)Cc2c([nH]c3c(F)cc(F)cc23)[C@@H]1c1ccc(C#N)nc1 [Compound B-51]	
